This note sets out measurements from patent US9040663B2, “Melanocortin receptor-specific peptides” (AstraZeneca AB, priority 2009, dated 2015).

Experiment [1] addresses T1, hMC4-R (Homo sapiens (Human), UniProt P32245). Briefly: High and low density hMC4-R functional assay (cAMP, HEK293-T-REx-MC4-R cells). The class given is cell-based. To be noted: for Emax: NDP-α-MSH = 100%, read-out: Intrinsic Activity (%).
In experiment [2] the target is T1, hMC4-R. The experiment is described as follows: Competitive inhibition binding assay using [I125]-NDP-α-MSH, hMC4-R. As to conditions: membranes of HEK-293 cells expressing recombinant hMC4-R, read-out: MC4-R Ki.
[3] abbreviates: 0.1 ng/mL Doxycycline (low density hMC4-R system).
The mark [4] stands for this setting: 10 ng/mL Doxycycline (high density hMC4-R system).

Read-outs that look alike come from different tables or passages of the source. Positions of bridges follow the written chain, without caps; N, C: chain ends. Non-standard residues stand in square brackets, D forms with d. Residues, ends and D or L forms follow the SMILES beside them. dPhe(4-CN) = N#Cc1ccc(C[C@@H](N)C(=O)O)cc1; dPhe(3-Cl) = N[C@H](Cc1cccc(Cl)c1)C(=O)O; dPhe(2-F) = N[C@H](Cc1ccccc1F)C(=O)O; Orn = NCCC[C@H](N)C(=O)O

T1 sequence (P32245 whole entry): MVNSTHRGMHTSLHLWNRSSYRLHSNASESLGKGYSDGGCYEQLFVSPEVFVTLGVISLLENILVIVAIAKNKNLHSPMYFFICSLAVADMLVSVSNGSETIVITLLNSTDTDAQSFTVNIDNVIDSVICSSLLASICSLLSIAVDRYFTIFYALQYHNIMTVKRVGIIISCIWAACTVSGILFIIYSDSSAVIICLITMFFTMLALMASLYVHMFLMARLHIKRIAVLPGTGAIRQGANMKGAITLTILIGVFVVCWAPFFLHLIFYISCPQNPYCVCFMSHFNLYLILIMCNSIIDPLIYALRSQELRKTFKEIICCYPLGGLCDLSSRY

With `CC(=O)N[C@@H](CCCNC(=N)N)C(=O)N[C@H]1CC(=O)NCCCC[C@@H](C(N)=O)NC(=O)[C@H](Cc2c[nH]c3ccccc23)NC(=O)[C@H](CCCNC(=N)N)NC(=O)[C@@H](Cc2ccc(C#N)cc2)NC(=O)[C@H](CCC(N)=O)NC1=O` [Example 90, Ac-Arg-cyclo(Asp-Gln-D-Phe(4-CN)-Arg-Trp-Lys)-NH2], in experiment [1] (setting [3]), the EC50 is 4 nM and the Emax was found to be 31%. Further, in experiment [1] (setting [4]), the Emax is 96%. Moreover, the inhibitory constant (Ki) in experiment [2] worked out at 5 nM.
Turning to `CC(=O)N[C@@H](CCCNC(=N)N)C(=O)N[C@H]1CCCNC(=O)CC[C@@H](C(N)=O)NC(=O)[C@H](Cc2c[nH]c3ccccc23)NC(=O)[C@H](CCCNC(=N)N)NC(=O)[C@@H](Cc2ccc(C#N)cc2)NC(=O)[C@H](CC(N)=O)NC1=O` [Example 91, Ac-Arg-cyclo(Orn-Asn-D-Phe(4-CN)-Arg-Trp-Glu)-NH2], in experiment [1] (setting [3]), a half-maximal response (EC50) required 1 nM and the Emax turned out to be 18%. Further, in experiment [1] (setting [4]), the half-maximal effective concentration (EC50) was determined as 0.265 nM and the Emax was determined as 96%. The Ki in experiment [2] was determined as 4 nM.
For `CC(=O)N[C@@H](CCCNC(=N)N)C(=O)N[C@H]1CCC(=O)NCCC[C@@H](C(N)=O)NC(=O)[C@H](Cc2c[nH]c3ccccc23)NC(=O)[C@H](CCCNC(=N)N)NC(=O)[C@@H](Cc2ccc(F)cc2)NC(=O)[C@H](CCC(N)=O)NC1=O` [Example 92, Ac-Arg-cyclo(Glu-Gln-D-Phe(4-F)-Arg-Trp-Orn)-NH2], in experiment [1] (setting [3]), the EC50 is 0.1 nM. The Emax stood at 81% in experiment [1] (setting [3]) and 89% in experiment [1] (setting [4]). For the same compound, the Ki in experiment [2] is 2 nM.
Turning to `CC(=O)N[C@@H](CCCNC(=N)N)C(=O)N[C@H]1CCCCNC(=O)C[C@@H](C(N)=O)NC(=O)[C@H](Cc2c[nH]c3ccccc23)NC(=O)[C@H](CCCNC(=N)N)NC(=O)[C@@H](Cc2ccc(C#N)cc2)NC(=O)[C@H](CCC(N)=O)NC1=O` [Example 93, Ac-Arg-cyclo(Lys-Gln-D-Phe(4-CN)-Arg-Trp-Asp)-NH2] (Ac-RKQ[dPhe(4-CN)]RWD-NH2; lactam 2-7), the EC50 in experiment [1] (setting [3]) is 0.3 nM; in experiment [1] (setting [4]) it was 0.17 nM. The values for the Emax in experiment [1] (setting [3]) and in experiment [1] (setting [4]) were 44% and 97%, respectively. Besides, in experiment [2], the Ki stood at 1 nM.
For `CC(=O)N[C@@H](CCCNC(=N)N)C(=O)N[C@H]1CCC(=O)NCCC[C@@H](C(N)=O)NC(=O)[C@H](Cc2c[nH]c3ccccc23)NC(=O)[C@H](CCCNC(=N)N)NC(=O)[C@@H](Cc2cc(F)c(F)c(F)c2)NC(=O)[C@H](CC(N)=O)NC1=O` [Example 95, Ac-Arg-cyclo(Glu-Asn-D-Phe(3,4,5-triF)-Arg-Trp-Orn)-NH2] the same measures were 1 nM, 0.125 nM, 42%, 100% and 3 nM.
In the case of `CC(=O)N[C@@H](CCCNC(=N)N)C(=O)N[C@H]1CCCNC(=O)CC[C@@H](C(N)=O)NC(=O)[C@H](Cc2c[nH]c3ccccc23)NC(=O)[C@H](CCCNC(=N)N)NC(=O)[C@@H](Cc2cc(F)c(F)c(F)c2)NC(=O)[C@H](CC(N)=O)NC1=O` [Example 96, Ac-Arg-cyclo(Orn-Asn-D-Phe(3,4,5-triF)-Arg-Trp-Glu)-NH2], in experiment [1] (setting [3]), the response was half-maximal at 2 nM (EC50) and the Emax is 24%. In experiment [1] (setting [4]), the concentration for a half-maximal effect (EC50) is 0.235 nM and the Emax stood at 100%. Moreover, the inhibitory constant (Ki) in experiment [2] stood at 2 nM.
`CC(=O)N[C@@H](CCCNC(=N)N)C(=O)N[C@H]1CCC(=O)NCCC[C@@H](C(N)=O)NC(=O)[C@H](Cc2c[nH]c3ccccc23)NC(=O)[C@H](CCCNC(=N)N)NC(=O)[C@@H](Cc2cccc(Cl)c2)NC(=O)[C@H](CCCNC(N)=O)NC1=O` [Example 99, Ac-Arg-cyclo(Glu-Arg-D-Phe(3-Cl)-Arg-Trp-Orn)-NH2]: in experiment [1] (setting [3]), a half-maximal response (EC50) required 0.7 nM and the Emax was found to be 32%. In experiment [1] (setting [4]), the EC50 amounted to 0.14 nM and the Emax is 94%. For the same compound, in experiment [2], the Ki came to 0.5 nM.
For `CC(=O)N[C@@H](CCCNC(=N)N)C(=O)N[C@H]1CCC(=O)NCCC[C@@H](C(N)=O)NC(=O)[C@H](Cc2c[nH]c3ccccc23)NC(=O)[C@H](CCCNC(=N)N)NC(=O)[C@@H](Cc2cccc(Cl)c2)NC(=O)[C@H](CCCCN)NC1=O` [Example 100, Ac-Arg-cyclo(Glu-Lys-D-Phe(3-Cl)-Arg-Trp-Orn)-NH2] (Ac-REK[dPhe(3-Cl)]RW[Orn]-NH2; lactam 2-7), in experiment [1] (setting [3]), the EC50 was determined as 6 nM. Moreover, the results for the Emax in experiment [1] (setting [3]) and in experiment [1] (setting [4]) were 27% and 93%, respectively. For the same compound, in experiment [2], the inhibition constant (Ki) was 4 nM.
Take `CC(=O)N[C@@H](CCCNC(=N)N)C(=O)N[C@H]1CCC(=O)NCCC[C@@H](C(N)=O)NC(=O)[C@H](Cc2c[nH]c3ccccc23)NC(=O)[C@H](CCCNC(=N)N)NC(=O)[C@@H](Cc2cccc(Cl)c2)NC(=O)[C@H](CCCN)NC1=O` [Example 101, Ac-Arg-cyclo(Glu-Orn-D-Phe(3-Cl)-Arg-Trp-Orn)-NH2]: the concentration giving a half-maximal response (EC50) in experiment [1] (setting [3]) is 0.95 nM; in experiment [1] (setting [4]), 0.14 nM. The results for the Emax in experiment [1] (setting [3]) and in experiment [1] (setting [4]) were 36% and 93%, respectively. The inhibition constant (Ki) in experiment [2] came to 1 nM.
As to `CC(=O)N[C@@H](CCCNC(=N)N)C(=O)N[C@H]1CC(=O)NCCCC[C@@H](C(N)=O)NC(=O)[C@H](Cc2c[nH]c3ccccc23)NC(=O)[C@H](CCCNC(=N)N)NC(=O)[C@@H](Cc2ccc(F)cc2)NC(=O)[C@@H]2CCCN2C1=O` [Example 103, Ac-Arg-cyclo(Asp-Pro-D-Phe(4-F)-Arg-Trp-Lys)-NH2], the concentration for a half-maximal effect (EC50) in experiment [1] (setting [3]) stood at 1 nM; in experiment [1] (setting [4]) it was 0.13 nM. Further, the Emax in experiment [1] (setting [3]) was 32%; in experiment [1] (setting [4]), 100%. Moreover, in experiment [2], the inhibition constant (Ki) stood at 4 nM.
Consider `CC(=O)N[C@@H](CCCNC(=N)N)C(=O)N[C@H]1CCCNC(=O)CC[C@@H](C(N)=O)NC(=O)[C@H](Cc2c[nH]c3ccccc23)NC(=O)[C@H](CCCNC(=N)N)NC(=O)[C@@H](Cc2ccccc2F)NC(=O)[C@@H]2CCCN2C1=O` [Example 105, Ac-Arg-cyclo(Orn-Pro-D-Phe(2-F)-Arg-Trp-Glu)-NH2] (Ac-R[Orn]P[dPhe(2-F)]RWE-NH2; lactam 2-7), for which the concentration giving a half-maximal response (EC50) was 3 nM in experiment [1] (setting [3]) and 0.15 nM in experiment [1] (setting [4]). In addition, the results for the Emax in experiment [1] (setting [3]) and in experiment [1] (setting [4]) were 35% and 94%, respectively. In addition, in experiment [2], the Ki came out at 7 nM.
Take `CC(=O)N[C@@H](CCCNC(=N)N)C(=O)N[C@H]1CCCNC(=O)CC[C@@H](C(N)=O)NC(=O)[C@H](Cc2c[nH]c3ccccc23)NC(=O)[C@H](CCCNC(=N)N)NC(=O)[C@@H](Cc2ccccc2C)NC(=O)[C@H](CCC(N)=O)NC1=O` [Example 111, Ac-Arg-cyclo(Orn-Gln-D-Phe(2-Me)-Arg-Trp-Glu)-NH2]: the Emax in experiment [1] (setting [3]) was 81%; in experiment [1] (setting [4]), 104%. For the same compound, the Ki in experiment [2] came out at 6 nM.
As to `CC(=O)N[C@@H](CCCNC(=N)N)C(=O)N[C@H]1CCCNC(=O)CC[C@@H](C(N)=O)NC(=O)[C@H](Cc2c[nH]c3ccccc23)NC(=O)[C@H](CCCNC(=N)N)NC(=O)[C@@H](Cc2ccccc2Cl)NC(=O)[C@H](CCC(N)=O)NC1=O` [Example 112, Ac-Arg-cyclo(Orn-Gln-D-Phe(2-Cl)-Arg-Trp-Glu)-NH2], the figures for the Emax in experiment [1] (setting [3]) and in experiment [1] (setting [4]) were 83% and 101%, respectively. In experiment [1] (setting [4]), this compound had a concentration for a half-maximal effect (EC50) of 0.07 nM. The Ki in experiment [2] is 4 nM.
In the case of `CC(=O)N[C@@H](CCCNC(=N)N)C(=O)N[C@H]1CCCNC(=O)CC[C@@H](C(N)=O)NC(=O)[C@H](Cc2c[nH]c3ccccc23)NC(=O)[C@H](CCCNC(=N)N)NC(=O)[C@@H](Cc2ccccc2Cl)NC(=O)[C@H](CC(N)=O)NC1=O` [Example 113, Ac-Arg-cyclo(Orn-Asn-D-Phe(2-Cl)-Arg-Trp-Glu)-NH2], the Emax in experiment [1] (setting [3]) was determined as 80%. Besides, in experiment [1] (setting [4]), the response was half-maximal at 0.065 nM (EC50) and the Emax is 100%. In experiment [2], the Ki came to 7 nM.
For `CC(=O)N[C@@H](CCCNC(=N)N)C(=O)N[C@H]1CCC(=O)NCCC[C@@H](C(N)=O)NC(=O)[C@H](Cc2c[nH]c3ccccc23)NC(=O)[C@H](CCCNC(=N)N)NC(=O)[C@@H](Cc2ccccc2C(F)(F)F)NC(=O)[C@H](CC(N)=O)NC1=O` [Example 116, Ac-Arg-cyclo(Glu-Asn-D-Phe(2-CF3)-Arg-Trp-Orn)-NH2], in experiment [1] (setting [3]), the Emax was determined as 77%. For the same compound, in experiment [1] (setting [4]), the concentration giving a half-maximal response (EC50) is 0.095 nM and the Emax was 104%. In experiment [2], the Ki worked out at 7 nM.
As for `CC(=O)N[C@@H](CCCNC(=N)N)C(=O)N[C@H]1CCCNC(=O)CC[C@@H](C(N)=O)NC(=O)[C@H](Cc2c[nH]c3ccccc23)NC(=O)[C@H](CCCNC(=N)N)NC(=O)[C@@H](Cc2ccccc2C(F)(F)F)NC(=O)[C@H](CC(N)=O)NC1=O` [Example 117, Ac-Arg-cyclo(Orn-Asn-D-Phe(2-CF3)-Arg-Trp-Glu)-NH2], in experiment [1] (setting [3]), the midpoint of the response, the EC50, lay at 1 nM and the Emax came to 50%. In addition, in experiment [1] (setting [4]), the Emax came to 112%. The Ki in experiment [2] turned out to be 5 nM.

The term EC50 denotes the concentration giving half of the maximal effect. As a reminder, the Ki is the dissociation constant of the complex between target and ligand, obtained from inhibition or displacement.
